Data as given in patent US10112933B2, “Methods and compositions for treatment of fibrosis” (Baylor College of Medicine, priority 2013, dated 2018).

These compounds were tested against recombinant Stat3 (binding to EGFR Y1068 phosphododecapeptide) (Homo sapiens, UniProt P40763) (assay: Stat3 SH2/pY-peptide SPR binding inhibition assay). Conditions: Stat3 500 nM, immobilized EGFR Y1068 phosphododecapeptide; read-out: SPR IC50 (competition with pY-peptide for binding to Stat3).
recombinant Stat3 (binding to EGFR Y1068 phosphododecapeptide), sequence (P40763 whole entry, species assumed): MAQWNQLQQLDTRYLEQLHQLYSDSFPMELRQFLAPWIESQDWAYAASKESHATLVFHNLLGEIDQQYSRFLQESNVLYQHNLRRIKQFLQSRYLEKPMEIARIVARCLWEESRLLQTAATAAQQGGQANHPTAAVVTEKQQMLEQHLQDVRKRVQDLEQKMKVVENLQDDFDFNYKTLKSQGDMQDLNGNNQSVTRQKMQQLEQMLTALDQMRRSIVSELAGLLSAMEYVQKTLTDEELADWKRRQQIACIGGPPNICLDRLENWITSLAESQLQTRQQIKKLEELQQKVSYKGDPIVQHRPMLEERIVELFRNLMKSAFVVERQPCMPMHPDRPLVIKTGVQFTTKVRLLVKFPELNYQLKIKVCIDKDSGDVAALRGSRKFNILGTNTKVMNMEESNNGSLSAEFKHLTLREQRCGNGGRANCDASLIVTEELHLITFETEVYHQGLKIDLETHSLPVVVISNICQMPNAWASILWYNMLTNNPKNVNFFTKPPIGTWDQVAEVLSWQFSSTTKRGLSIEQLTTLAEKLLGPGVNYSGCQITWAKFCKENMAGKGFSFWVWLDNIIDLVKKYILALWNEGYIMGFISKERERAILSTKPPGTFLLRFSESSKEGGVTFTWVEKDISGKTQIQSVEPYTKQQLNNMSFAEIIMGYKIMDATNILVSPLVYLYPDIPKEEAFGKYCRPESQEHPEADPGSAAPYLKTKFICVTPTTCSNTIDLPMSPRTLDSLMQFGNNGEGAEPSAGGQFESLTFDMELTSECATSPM
Excerpt: Data shown are representative of 2 or more experiments. The equilibrium binding levels obtained in the absence or presence of compounds were normalized (response obtained in the presence of compound÷the response obtained in the absence of compound×100), plotted against the log concentration (nM) of the compounds (panel G). The experimental points fit to a competitive binding curve that uses a four-parameter logistic equation (see exemplary methods for details). These curves were used to calculate IC50 (Table 1).
Stat3 SH2/pY-peptide binding assay. Stat3 binding assays were performed at 25° C. with a BIAcore 3000 biosensor using 20 mM Tris buffer pH 8 containing 2 mM mercaptoethanol and 5% DMSO as the running buffer (Kim et al., 2005). Phosphorylated and control non-phosphorylated biotinylated EGFR derived dodecapeptides based on the sequence surrounding Y1068 (Shao et al., 2004) were immobilized on a streptavidin coated sensor chip (BIAcore inc., Picataway N.J.). The binding of Stat3 was conducted in 20 mM Tris buffer pH 8 containing 2 mM β-mercaptoethanol at a flow rate of 10 uL/min for 1-2 minute. Aliquots of Stat3 at 500 nM were premixed with compound to achieve a final concentration of 1-1,000 uM and incubated at 4° C. prior to being injected onto the sensor chip. The chip was regenerated by injecting 10 uL of 100 mM glycine at pH 1.5 after each sample injection. A control (Stat3 with DMSO but without compound) was run at the beginning and the end of each cycle (40 sample injections) to ensure that the integrity of the sensor chip was maintained throughout the cycle run. The average of the two controls was normalized to 100% and used to evaluate the effect of each compound on Stat3 binding. Responses were normalized by dividing the value at 2 min by the response obtained in the absence of compounds at 2 min and multiplying by 100. IC50 values were determined by plotting % maximum response as a function of log concentration of compound and fitting the experimental points to a competitive binding model using a four parameter logistic equation: R=Rhigh−(Rhigh−Rlow)/(1+conc/A1)^A2, where R=percent response at inhibitor concentration, Rhigh=percent response with no compound, Rlow=percent response at highest compound concentration, A2=fitting parameter (slope) and A1=IC50 (BIAevaluation Software version 4.1).
EXP IIA. Stat3/pY-peptide SPR binding inhibition assay. Stat3 pY-peptide binding assays is performed at 25° C. using a BIAcore 3000 biosensor as described (Xu et al., 2009). Briefly, phosphorylated and control nonphosphorylated biotinylated EGFR derived dodecapeptides based on the sequence surrounding Y1068 are immobilized on a streptavidin coated sensor chip (BIAcore Inc., Piscataway N.J.). […]
`O=C(O)c1ccc(C=CC(=O)c2ccc3c(c2)OCCO3)cc1` [Cpd3, 4-[3-(2,3-dihydro-1,4-benzodioxin-6-yl)-3-oxo-1-propen-1-yl]benzoic acid] gave an IC50 of 447 µM. `CCOc1cc(C=C2C(=O)c3ccccc3C2=O)cc(Cl)c1OCc1cccc(C(=O)O)c1` [Cpd3-2, 3-({2-chloro-4-[(1,3-dioxo-1,3-dihydro-2H-inden-2-ylidene)methyl]-6-ethoxyphenoxy}methyl)benzoic acid] gave an IC50 of 256 µM. For `CCN1C(=O)C(=Cc2ccc(-c3cc(C(=O)O)ccc3Cl)o2)C(=O)N(CC)C1=S` [Cpd30-12, 4-chloro-3-{5-[(1,3-diethyl-4,6-dioxo-2-thioxotetrahydro-5(2H)-pyrimidinylidene)methyl]-2-furyl}benzoic acid], the IC50 was 114 µM.
